This is an account of results in US20160095843A1, “PYRAZOLOPYRROLIDINE DERIVATIVES AND THEIR USE IN THE TREATMENT OF DISEASE” (NOVARTIS AG, priority 2013, published 2016).

Where two headings read alike, the source gives them in different places. A value given as a limit tells only on which side of the number the result lay.

One assay has as its target T1, BRD4 (Homo sapiens, UniProt O60885).
T1 construct: 45 nM His-Brd4(44-477) all proteins produced in-house
Put plainly: TR-FRET in-vitro binding assay for BRD4. The conditions noted are these: Biochemical IC50 values, His-Brd4(44-477). On the procedure:
(§1) TR-FRET In-Vitro Binding Assays for BRD2, BRD3, and BRD4:
(§2) All assays were performed in 384-well microtiter plates. Each assay plate contained 8-point serial dilutions for 40 test compounds, plus 16 high- and 16 low controls. Liquid handling and incubation steps were done on an Innovadyne Nanodrop Express equipped with a robotic arm (Thermo CatX, Perkin Elmer/Caliper Twister II) and an incubator (Liconic STX40, Thermo Cytomat 2C450). The assay plates were prepared by addition of 50n1 per well of compound solution in 90% DMSO HummingBird nanodispenser (Zinsser Analytic). […] Reactions were incubated at 30° C. for 35 minutes. […] After 35 minutes incubation at 30° C., plates were measured in a Perkin Elmer EnVision multilabel reader.
(§3) Preparation of Compound Dilutions
(§4) Test compounds were dissolved in DMSO (10 mM) and transferred into 1.4 mL flat bottom or V-shaped Matrix tubes carrying a unique 2D matrix. The stock solutions were stored at […] if not used immediately. For the test procedure the vials were defrosted and identified by a scanner whereby a working sheet was generated that guided the subsequent working steps. Compound dilutions were made in 96 well plates. This format enabled the assay of maximally 40 individual test compounds at 8 concentrations (single points) including 4 reference compounds, if desired (known BET inhibitors from the prior art, for this and other assays of the type disclosed herein). The dilution protocol included the production of “pre-dilution plates”, “master plates” and “assay plates”.
(§5) Polypropylene 96-well plates were used as pre-dilution plates. […] All dilution steps were done on a HamiltonSTAR robot.
(§6) These plates were used directly for the assay which was performed in a total volume of 13.55 μL.
A general note: TR-FRET usually uses a lanthanide donor and a delayed reading to cut background.

Another assay deals with T2, BRD3 (Homo sapiens, UniProt Q15059).
T2 construct: 45 nM His-Brd3(20-477) or 45 nM His-Brd4(44-477)
The assay is described as follows: TR-FRET in-vitro binding assay for BRD3. Particulars: Biochemical IC50 values, His-Brd3(20-477). On the procedure: as §1, §2, §3, §4, §5, §6

In a further assay the test system is THP-1 cells. Put plainly: Cell growth inhibition assay (CellTiter-Glo), THP-1. In kind it is cell-based. Particulars: Homo sapiens. In a few lines:
(§7)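 Leukemia lines grown in their own media were exposed for 4 days at 37° C. to 3-fold serial dilutions from 10 μM (0.1% DMSO). Viability by CellTiter-Glo ATP luminescence, corrected for background and day-0 plate; IC50 and TGI from four-parameter fit against vehicle (100%) and medium (−100%).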
(ATP-based viability assays read luminescence as a measure of living cells.)

Another assay relates to K-562 cells. Put plainly: Cell growth inhibition assay (CellTiter-Glo), K-562. In kind it is cell-based, human. A digest of the protocol: as §7
A further assay concerns the target T3, BRD2 (Homo sapiens, UniProt P25440).
T3 construct: 45 nM His-Brd2(60-472) or 45 nM His-Brd3(20-477)
The assay is described as follows: TR-FRET in-vitro binding assay for BRD2. Particulars: Biochemical IC50 values, His-Brd2(60-472). On the procedure: as §1, §2, §3, §4, §5, §6

The test system of a further assay is MV-4-11 cells. The assay is described as follows: Cell growth inhibition assay (CellTiter-Glo), MV-4-11. In kind it is cell-based. The conditions noted are these: Homo sapiens, MV4-11. A digest of the protocol:
as §7

T2 sequence (Q15059 20-477): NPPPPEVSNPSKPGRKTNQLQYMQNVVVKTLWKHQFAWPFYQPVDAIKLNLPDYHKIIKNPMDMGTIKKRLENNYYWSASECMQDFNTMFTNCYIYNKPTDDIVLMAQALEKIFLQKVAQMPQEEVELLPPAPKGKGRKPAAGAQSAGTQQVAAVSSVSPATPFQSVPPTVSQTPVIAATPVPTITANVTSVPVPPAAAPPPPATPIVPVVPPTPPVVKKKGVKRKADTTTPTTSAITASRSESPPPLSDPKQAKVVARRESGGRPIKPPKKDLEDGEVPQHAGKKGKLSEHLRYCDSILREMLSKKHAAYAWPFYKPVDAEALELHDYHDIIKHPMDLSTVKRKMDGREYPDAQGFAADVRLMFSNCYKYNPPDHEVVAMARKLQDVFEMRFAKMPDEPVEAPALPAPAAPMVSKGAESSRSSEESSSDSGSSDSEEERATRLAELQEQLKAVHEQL
T3 sequence (P25440 60-472): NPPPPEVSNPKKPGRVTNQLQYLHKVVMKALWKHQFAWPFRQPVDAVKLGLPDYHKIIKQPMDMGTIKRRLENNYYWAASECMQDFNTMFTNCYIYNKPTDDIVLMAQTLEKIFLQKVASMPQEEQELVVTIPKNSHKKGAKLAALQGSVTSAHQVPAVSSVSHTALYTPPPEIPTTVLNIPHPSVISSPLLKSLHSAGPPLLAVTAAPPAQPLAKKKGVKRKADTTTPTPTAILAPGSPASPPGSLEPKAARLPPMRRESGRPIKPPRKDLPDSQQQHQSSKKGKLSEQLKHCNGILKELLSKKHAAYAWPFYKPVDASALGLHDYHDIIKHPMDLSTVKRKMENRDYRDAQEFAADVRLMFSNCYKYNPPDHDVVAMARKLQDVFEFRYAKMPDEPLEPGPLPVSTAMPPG

By IC50 is commonly meant the midpoint of a concentration-inhibition curve. Read a low IC50 as higher potency. Take `Cc1cc(N2C(=O)c3nn(C4CC4)c(C)c3[C@@H]2c2ccc(Cl)cc2)cn(C)c1=O` [Example 22, (S)-4-(4-chlorophenyl)-2-cyclopropyl-5-(1,5-dimethyl-6-oxo-1,6-dihydropyridin-3-yl)-3-methyl-4,5-dihydropyrrolo[3,4-c]pyrazol-6(2H)-one]: the half-inhibitory concentration (IC50) on BRD4 and on BRD3 was greater than 6.7 µM each time.
As usually defined, the GI50 is the concentration at which growth is held to half of that of the control. Low readings indicate more potent growth inhibition, high ones less potent growth inhibition. Regarding `COc1ncc(-n2nc3c(c2C(C)C)[C@H](c2ccc(Cl)cc2)N(c2cc(C)c4onc(C)c4c2)C3=O)c(OC)n1` [Example 61, (S)-4-(4-chlorophenyl)-2-(2,4-dimethoxypyrimidin-5-yl)-5-(3,7-dimethylbenzo[d]isoxazol-5-yl)-3-isopropyl-4,5-dihydropyrrolo-[3,4-c]pyrazol-6(2H)-one], the GI50 in the assay on THP-1 cells was 2430 nM; in the assay with K-562 cells (Homo sapiens, K562), greater than 10000 nM; with MV-4-11 cells it was 948 nM. Further, the 50% inhibitory concentration (IC50) at BRD2 is greater than 37 µM.
As for `Cc1nn(C2CC2)c2c1[C@H](c1ccc(Cl)cc1)N(c1cc(Cl)c(=O)n(C)c1)C2=O` [Example 50, (S)-5-(5-chloro-1-methyl-6-oxo-1,6-dihydropyridin-3-yl)-4-(4-chlorophenyl)-1-cyclopropyl-3-methyl-4,5-dihydropyrrolo[3,4-c]pyrazol-6(1H)-one], the half-maximal inhibitory concentration (IC50) on BRD4 and on BRD3 was greater than 6.7 µM in each case.
As for `Cc1cc(N2C(=O)c3nn(C)cc3[C@@H]2c2ccc(Cl)cc2)cn(C)c1=O` [Example 15, (S)-4-(4-chlorophenyl)-5-(1,5-dimethyl-6-oxo-1,6-dihydropyridin-3-yl)-2-methyl-4,5-dihydropyrrolo[3,4-c]pyrazol-6(2H)-one], the IC50 at BRD4 and on BRD2 was greater than 6.7 µM each time.
As to `Cc1nn(-c2ccnn2C)c2c1C(c1ccc(Cl)cc1)N(c1cc(C)c(=O)n(C)c1)C2=O` (racemic) [Example 74, 4-(4-chlorophenyl)-5-(1,5-dimethyl-6-oxo-1,6-dihydropyridin-3-yl)-3-methyl-1-(1-methyl-1H-pyrazol-5-yl)-4,5-dihydropyrrolo-[3,4-c]pyrazol-6(1H)-one], the GI50 came to 142 nM with THP-1 cells; 459 nM with K-562 cells (Homo sapiens, K562); 95.8 nM in the assay with MV-4-11 cells. Further, the IC (TGI) with THP-1 cells is 327 nM; with K-562 cells (Homo sapiens, K562), greater than 10000 nM; in the assay on MV-4-11 cells, 103 nM.
In the case of `CCn1nc2c(c1C)C(c1ccc(Cl)cc1F)N(c1cc(C)c(=O)n(C)c1)C2=O` (centres unmarked) [Example 171, 4-(4-chloro-2-fluorophenyl)-5-(1,5-dimethyl-6-oxo-1,6-dihydropyridin-3-yl)-2-ethyl-3-methyl-4,5-dihydropyrrolo[3,4-c]pyrazol-6(2H)-one], the concentration for 50% growth inhibition (GI50) in the assay on THP-1 cells amounted to 118 nM; in the assay with K-562 cells (Homo sapiens, K562), 442 nM; with MV-4-11 cells, 93.8 nM.
In the same order, the values of `Cc1cc(N2C(=O)c3nn(C(=O)N(C)C)c(C)c3C2c2ccc(Cl)cc2)cn(C)c1=O` (centres unmarked) [Example 141] are 281 nM, 1190 nM and 136 nM.
In the same order, the values of `Cc1nn(C2CC2)c2c1C(c1cccc(OC(F)(F)F)c1)N(c1cc(C)c(=O)n(C)c1)C2=O` (centres unmarked) [Example 91, 1-cyclopropyl-5-(1,5-dimethyl-6-oxo-1,6-dihydropyridin-3-yl)-3-methyl-4-(3-(trifluoromethoxy)phenyl)-4,5-dihydropyrrolo-[3,4-c]pyrazol-6(1H)-one] are 908 nM, 2680 nM and 633 nM.
The corresponding values for `Cc1n[nH]c2c1C(c1ccc(F)cc1F)N(c1cc(C)c3nnc(C)n3c1)C2=O` (centres unmarked) [Example 172, 4-(2,4-difluorophenyl)-5-(3,8-dimethyl-[1,2,4]triazolo[4,3-a]pyridin-6-yl)-3-methyl-4,5-dihydropyrrolo[3,4-c]pyrazol-6(2H)-one] are 254 nM, 1080 nM and 176 nM.
On to `CCOc1c2c(nn1C)C(=O)N(c1cc(C)c(=O)n(C)c1)C2c1ccc(Cl)cc1` (centres unmarked) [Example 76, 4-(4-chlorophenyl)-5-(1,5-dimethyl-6-oxo-1,6-dihydropyridin-3-yl)-3-ethoxy-2-methyl-4,5-dihydropyrrolo-[3,4-c]pyrazol-6(2H)-one], for which the GI50 amounted to 140 nM in the assay on THP-1 cells; 339 nM in the assay with K-562 cells (Homo sapiens, K562); 53.2 nM with MV-4-11 cells.
As to `Cc1nn(C(C)C)c2c1C(c1ccc(Cl)cc1)N(c1cc(C)c(=O)n(C)c1)C2=O` (centres unmarked) [Example 63, 4-(4-chlorophenyl)-5-(1,5-dimethyl-6-oxo-1,6-dihydropyridin-3-yl)-1-isopropyl-3-methyl-4,5-dihydropyrrolo[3,4-c]pyrazol-6(1H)-one], the concentration for 50% growth inhibition (GI50) turned out to be 61.9 nM in the assay with THP-1 cells; 314 nM with K-562 cells (Homo sapiens, K562); 25.8 nM in the assay on MV-4-11 cells. Moreover, the IC (TGI) with K-562 cells is greater than 10000 nM.
Consider `Cc1nn(C2CC2)c2c1C(c1ccc(OC(F)(F)F)cc1)N(c1cc(C)c(=O)n(C)c1)C2=O` (centres unmarked) [Example 95, 1-cyclopropyl-5-(1,5-dimethyl-6-oxo-1,6-dihydropyridin-3-yl)-3-methyl-4-(4-(trifluoromethoxy)phenyl)-4,5-dihydropyrrolo-[3,4-c]pyrazol-6(1H)-one], for which the 50% growth inhibitory concentration (GI50) in the assay with THP-1 cells came out at 245 nM; in the assay with K-562 cells (Homo sapiens, K562) it was 868 nM; with MV-4-11 cells it was 140 nM.
In the same order, the values of `COc1ncccc1-n1nc(C)c2c1C(=O)N(c1cc(C)c3nnn(C)c3n1)C2c1ccc(Cl)cc1` (centres unmarked) [Example 109, 4-(4-chlorophenyl)-5-(3,7-dimethyl-3H-[1,2,3]triazolo[4,5-b]pyridin-5-yl)-1-(2-methoxypyridin-3-yl)-3-methyl-4,5-dihydropyrrolo-[3,4-c]pyrazol-6(1H)-one] are 39.8 nM, 269 nM and 18.6 nM.
On to `CC(=O)N1CC(n2nc(C)c3c2C(=O)N(c2cc(C)c(=O)n(C)c2)C3c2ccc(Cl)cc2)C1` (centres unmarked) [Example 153, 1-(1-acetylazetidin-3-yl)-4-(4-chlorophenyl)-5-(1,5-dimethyl-6-oxo-1,6-dihydropyridin-3-yl)-3-methyl-4,5-dihydropyrrolo[3,4-c]pyrazol-6(1H)-one], for which the GI50 in the assay on THP-1 cells stood at 229 nM; with K-562 cells (Homo sapiens, K562), 925 nM; in the assay with MV-4-11 cells, 115 nM.
In the case of `Cc1nn(-c2cncn2C)c2c1C(c1ccc(Cl)cc1)N(c1cc(C)c(=O)n(C)c1)C2=O` (centres unmarked) [Example 83, 4-(4-chlorophenyl)-5-(1,5-dimethyl-6-oxo-1,6-dihydropyridin-3-yl)-3-methyl-1-(1-methyl-1H-imidazol-5-yl)-4,5-dihydropyrrolo[3,4-c]pyrazol-6(1H)-one], the GI50 in the assay with THP-1 cells turned out to be 164 nM; in the assay on K-562 cells (Homo sapiens, K562), 719 nM; in the assay with MV-4-11 cells, 100 nM.
The corresponding values for `Cc1nn(C2CC2)c2c1C(c1ccc(Cl)cc1)N(c1cc(C)c3nnc(C)n3c1)C2=O` (centres unmarked) [Example 92, 4-(4-chlorophenyl)-1-cyclopropyl-5-(3,8-dimethyl-[1,2,4]triazolo[4,3-a]pyridin-6-yl)-3-methyl-4,5-dihydropyrrolo-[3,4-c]pyrazol-6(1H)-one] are 19.2 nM, 65 nM and 10.9 nM.
`Cc1cc(N2C(=O)c3c(cnn3C(C)C)C2c2ccc(Cl)cc2)cn(C)c1=O` (centres unmarked) [Example 36, 4-(4-chlorophenyl)-5-(1,5-dimethyl-6-oxo-1,6-dihydropyridin-3-yl)-1-isopropyl-4,5-dihydropyrrolo-[3,4-c]pyrazol-6(1H)-one]: the GI50 with THP-1 cells was 103 nM; in the assay on K-562 cells (Homo sapiens, K562) it was 430 nM; in the assay with MV-4-11 cells it was 53.4 nM.
Consider `Cc1nn(C2CN(C)C2)c2c1C(c1ccc(Cl)cc1)N(c1cc(C)c(=O)n(C)c1)C2=O` (centres unmarked) [Example 140, 4-(4-chlorophenyl)-5-(1,5-dimethyl-6-oxo-1,6-dihydropyridin-3-yl)-3-methyl-1-(1-methylazetidin-3-yl)-4,5-dihydropyrrolo-[3,4-c]pyrazol-6(1H)-one], for which the GI50 turned out to be 392 nM with THP-1 cells; 1370 nM with K-562 cells (Homo sapiens, K562); 106 nM with MV-4-11 cells.
